# Test results: paper PMC8125951, “Exploring the 2′-Hydroxy-Chalcone Framework for the Development of Dual Antioxidant and Soybean Lipoxygenase Inhibitory Agents” (Molecules, 2021)
# Key:
# [1] = ABTS radical cation decolorization assay; details: 100 μM
# Protocol: The ABTS radical cation decolorization assay was used as another antioxidant activity estimation protocol (Table 2). Oxidation of ABTS with potassium persulfate generates directly the radical with no involvement of an intermediate radical, which is then reduced upon adding electron-donating antioxidants.
# In order to produce the ABTS radical cation (ABTS^+·), ABTS stock solution in water (7 mM) was mixed with potassium persulfate (2.45 mM) and left in the dark at room temperature for 12–16 h before use. Our published experimental technique was used (1). The results are recorded after 1 min of the mixing solutions at 734 nm. The results were compared to the appropriate standard inhibitor Trolox.
# [2] = Interaction with the stable free radical DPPH (reducing activity)
# Protocol: The first assay refers to the interaction of the compounds with the stable free radical DPPH and it is a fast, simple, cost-effective, and widely used method, where the DPPH radical reacts directly with the antioxidant and is decolorized. This interaction indicates their radical scavenging ability in an iron-free system. The scavenging effect of the synthesized analogues on the DPPH radical was evaluated according to the methods of Hadjipavlou et al..
# To an ethanolic solution of DPPH (100 μM) in absolute ethanol, an equal volume of the compounds dissolved in DMSO was added (100 μM). […]
# [3] = Competition of the tested compounds with DMSO for hydroxyl radicals; details: 100 μM
# Excerpt: Among the reactive oxygen species (ROS), the hydroxyl (^•OH) free radical is possibly the most toxic, reacting with several biological important molecules such as DNA, lipids, or carbohydrates. Polyunsaturated fatty acids are particularly vulnerable by free radicals. Iron released from damaged cells is more likely to be readily available to catalyze the generation of ^•OH radicals. Thus, we tried to test the ability of our compounds to scavenge hydroxyl radicals determining the competition of selected chalcones and aurones with DMSO for hydroxyl radicals. Hydroxyl radicals were generated using the Fe^3+/ascorbic acid system and expressed as a percentage inhibition of formaldehyde production in the presence of each compound at 100 μM.
# The hydroxyl radicals generated by the Fe^3+ / ascorbic acid system, were detected by the determination of formaldehyde produced from the oxidation of DMSO (Table 2). A negative control using the same % DMSO was used. Trolox was used as reference compound [75].
# [4] = Inhibition of linoleic acid lipid peroxidation induced by AAPH
# Excerpt: The second technique is based on the ability of the compounds to inhibit lipid peroxidation of linoleic acid induced by 2,2′-Azobis(2-amidinopropane) dihydrochloride (AAPH) radical (Table 2). AAPH-induced linoleic acid oxidation has been developed as a quick and reliable method for measuring the antioxidant activity. The thermal free radical producer (AAPH) generates free radicals in the solution which cause the oxidation of linoleic acid, and the method is a measure of how effective antioxidants protect against lipid peroxidation in vitro. Oxidation of linoleic acid by AAPH is followed by UV spectrophotometry in a highly diluted sample [61].
# 2,2′-Azobis(2-amidinopropane) dihydrochloride (AAPH) was used as a free radical initiator. Ten microliters of the 16 mM linoleic acid sodium salt solution was added to the UV cuvette containing 0.93 mL of 0.05 M phosphate buffer, pH 7.4 prethermostated at 37 °C. The oxidation reaction was initiated at 37 °C under air by the addition of 50 μL of 40 mM AAPH solution. Oxidation was carried out in the presence of the synthesized compounds (10 μL, from a stock solution of 10 mM in DMSO). In the assay without antioxidant, lipid oxidation was measured in the presence of the same level of DMSO.
# [5] = target: T1, soybean lipoxygenase (Glycine max, UniProt P08170); assay: Soybean LOX inhibition study in vitro; format: biochemical; details: for inhibition at 100 µM: read-out: Inhibition of Soybean Lipoxygenase 100 μM (%); for IC50: read-out: Inhibition of Soybean Lipoxygenase IC50
# T1 sequence (P08170 1-839): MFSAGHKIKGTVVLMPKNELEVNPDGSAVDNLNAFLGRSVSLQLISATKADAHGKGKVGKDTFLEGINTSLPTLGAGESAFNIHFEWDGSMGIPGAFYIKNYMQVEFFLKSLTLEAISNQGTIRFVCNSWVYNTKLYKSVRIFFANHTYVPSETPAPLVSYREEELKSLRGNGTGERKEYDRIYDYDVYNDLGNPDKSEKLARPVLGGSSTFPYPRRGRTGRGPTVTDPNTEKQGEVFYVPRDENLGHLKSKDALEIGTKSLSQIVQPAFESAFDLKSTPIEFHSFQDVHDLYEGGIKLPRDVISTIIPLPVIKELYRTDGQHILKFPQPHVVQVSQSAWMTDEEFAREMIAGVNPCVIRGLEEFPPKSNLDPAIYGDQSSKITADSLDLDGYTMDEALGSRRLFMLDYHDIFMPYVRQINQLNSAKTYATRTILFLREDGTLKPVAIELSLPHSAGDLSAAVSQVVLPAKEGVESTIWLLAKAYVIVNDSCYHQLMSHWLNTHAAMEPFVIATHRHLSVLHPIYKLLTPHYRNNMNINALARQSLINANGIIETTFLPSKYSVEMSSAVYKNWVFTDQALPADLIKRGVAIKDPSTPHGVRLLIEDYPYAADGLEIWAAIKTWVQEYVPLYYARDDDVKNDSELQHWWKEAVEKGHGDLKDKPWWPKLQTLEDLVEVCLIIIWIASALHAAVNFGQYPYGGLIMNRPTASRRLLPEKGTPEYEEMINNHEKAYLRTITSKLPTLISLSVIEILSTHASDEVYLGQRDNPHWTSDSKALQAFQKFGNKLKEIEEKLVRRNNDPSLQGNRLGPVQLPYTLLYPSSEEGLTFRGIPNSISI
# Protocol: Furthermore, as an indication of their anti-inflammatory activity, all the molecules were tested as inhibitors of soybean lipoxygenase (LOX). The enzyme lipoxygenase catalyzes the first two steps in the metabolism of arachidonic acid, which is cleaved from membrane phospholipids to leukotrienes (LTB4). LTB4 generation is considered to be important in the pathogenesis of neutrophil-mediated inflammatory diseases. For this study, the UV absorbance-based soybean LOX assay was used, which is a plant enzyme with satisfactory homology with the human 5-LOX [61, 62, 63, 64, 65, 66].
# The tested compounds dissolved in DMSO were incubated at room temperature with sodium linoleate (0.1 mL) and 0.2 mL of enzyme solution ([…] in saline) in Tris buffer pH 9.
SMILES,ABTS+· % [1],"Interaction with the Free Radical DPPH (%) ([2]; 100 μM, 60 min)",HO· (%) competition with DMSO for hydroxyl radicals [3],Inhibition of Lipid Peroxidation of Linoleic Acid Induced by AAPH Radical (%) ([4]; 100 μM),inhibition at 100 µM ([5]; at 100 μM) [%],"Interaction with the Free Radical DPPH (%) ([2]; 100 μM, 20 min)",IC50 [5] [µM],Inhibition of Lipid Peroxidation of Linoleic Acid Induced by AAPH Radical (%) ([4]; 0 min),Inhibition of Lipid Peroxidation of Linoleic Acid Induced by AAPH Radical (%) ([4]; 3 min),Inhibition of Lipid Peroxidation of Linoleic Acid Induced by AAPH Radical (%) ([4]; 6 min),Inhibition of Lipid Peroxidation of Linoleic Acid Induced by AAPH Radical (%) ([4]; 9 min),Interaction with the Free Radical DPPH (%) ([2]; 0 min),Interaction with the Free Radical DPPH (%) ([2]; 3 min),Interaction with the Free Radical DPPH (%) ([2]; 6 min),Interaction with the Free Radical DPPH (%) ([2]; 9 min),Inhibition of Soybean Lipoxygenase 100 μM (%) ([5]; at 100 μM)
"COCOc1ccc(C(=O)/C=C/c2ccc(OCOC)c(OCOC)c2)c(O)c1 [Compound 3a, 2′-hydroxy-4′,3,4-methoxymethoxy-chalcone]",93%,21.6%,40%,11.4,40.2,–,–,–,–,–,–,–,–,–,–,–
"COc1cc(OC)c(OC)cc1/C=C/C(=O)c1ccccc1O [Compound 3b, 2′-hydroxy-2,4,5-trimethoxy-chalcone]",–,no,no,67.3,–,no,75,–,–,–,–,–,–,–,–,–
"O=C(/C=C/c1ccc(O)c(O)c1)c1cc(Br)ccc1O [Compound 4b, 5′-bromo-2′,3,4-trihydroxy-chalcone]",inactive and no,82.0%,100%,82.3,–,82.4%,70,81.8,82.6,82.5,81.5,–,–,–,–,–
"Cc1c(C)c2c(c(C)c1O)CCC(C)(C(=O)O)O2 (stereo not shown) [Trolox, reference compound]",93%,93.6%,82%,92.0,–,93.0%,–,–,–,–,–,–,–,–,–,–
"COc1cc(OC)c(OC)cc1/C=C1\Oc2ccccc2C1=O [Compound 6b, 2′,4′,5′-trimethoxy-aurone]",64%,no,no,29.4,13,no interaction and did not show any DPPH radical scavenging ability and no,–,–,–,–,–,–,–,–,–,–
"COCOc1ccc2c(c1)O/C(=C\c1ccc(OCOC)c(OCOC)c1)C2=O [Compound 6a, 3′,4′,6-tri(methoxymethoxy)-aurone]",86%,no,43%,18.5,24.4,no interaction and did not show any DPPH radical scavenging ability and no,–,–,–,–,–,–,–,–,–,–
"O=C1/C(=C/c2ccc(O)c(O)c2)Oc2cc(O)ccc21 [Compound 7a, 3′,4′,6-Trihydroxy-Aurone]",71%,91.2%,inactive and no,53.2,24.5,89%,–,–,–,–,–,92.3,94.4,94.9,94.9,–
"O=C1/C(=C/c2cc(O)c(O)cc2O)Oc2ccccc21 [Compound 7b, 2′,4′,5′-Trihydroxy-Aurone]",no,100%,77%,–,–,100%,–,–,–,–,–,98.2,99.3,99.5,99.8,no
"O=C(/C=C/c1ccc(O)c(O)c1)c1ccc(O)cc1O [Compound 4a, 2′,3,4,4′-tetrahydroxy-chalcone]",86%,95.3%,68%,24.4,39.3,95.7%,–,–,–,–,–,95.4,95.4,94.9,95.4,–
"COCOc1ccc(C(=O)/C=C/c2cc(OC)c(OC)cc2OC)c(O)c1 [Compound 3c, 2′-hydroxy-4′-methoxymethoxy-2,4,5-trimethoxy-chalcone]",–,2.3%,–,39.4,–,no,45,–,–,–,–,–,–,–,–,–
